# Data: patent US5719278A, “Tricyclic benzazepine vasopressin antagonists” (American Cyanamid Company, priority 1996, dated 1998)
# Key:
# [1] = target: T1, Rat Kidney Medullary V2 Receptors (Rattus norvegicus, UniProt Q00788); test: Binding Assay to Rat Kidney Medullary V2 Receptors; settings: Rat Kidney Medullary V2 Receptors (no asterisk)
# T1 construct: Medullary tissues from rat kidneys are dissected out; from tissue; host or cells: rat kidney medulla membranes
# Experimental: Binding Assay to Rat Kidney Medullary V2 Receptors
# Medullary tissues from rat kidneys are dissected out, cut into small pieces and let soak in a […] sodium chloride solution containing 1.0 mM EDTA with many changes of the liquid phase, until the solution is clear of blood. The tissue is homogenized in a 0.25M sucrose solution containing 1.0 mM EDTA and 0.1 mM PMSF using a Potter-Elvehjem homogenizer with a teflon pestle. The homogenate is filtered through several layers (4 layers) of cheese cloth. The filtrate is rehomogenized using a dounce homogenizer, with a tight fitting pestle. The final homogenate is contrifuged at 1500×g for 15 min. The nuclear pellet is discarded and the supernatant fluid recentrifuged at 40,000×g for 30 min. The resulting pellet formed contains a dark inner part with the exterior, slightly pink. The pink outer part is suspended in a small amount of 50.0 mM Tris.HCl buffer, pH 7.4. The protein content is determined by the Lowry's method (Lowry et al, J. Biol. Chem., 1953). The membrane suspension is stored at -70° C., in 50.0 mM Tris.HCl, containing 0.2% inactivated BSA and 0.1 mM PMSF in aliquots of 1.0 ml containing 10.0 mg protein per ml of suspension until use in subsequent binding experiments.
# For binding experiments, the following is added in μl volume to wells of a 96 well format of a microtiter plate: 100.0 μl of 100.0 mM Tris.HCl buffer containing 0.2% heat inactivated BSA, 10.0 mM MgCl2 and a mixture of protease inhibitors: leupeptin, 1.0 mg %; aprotinin, 1.0 mg %; 1,10-phenanthroline, 2.0 mg %; trypsin inhibitor, 10.0 mg % and 0.1 mM PMSF, 20.0 μl of [^3 H]Arginine^8, vasopressin (S.A. 75.0 Ci/mmole) at 0.8 nM and the reaction initiated by the addition of 80.0 μl of tissue membranes (200.0 μg tissue protein). The plates are left undisturbed on the bench top for 120 min. to reach equilibrium. Non-specific binding is assessed in the presence of 1.0 μM of unlabeled ligand, added in 20 μl volume. For test compounds, these are solubilized in 50% dimethylsulfoxide (DMSO) and added in 20.0 μl volume to a final incubation volume of 200 μl. Upon completion of binding, the content of each well is filtered off, using a Brandel® cell Harvester (Gaithersburg, Md.). The radioactivity trapped on the filter disk by the ligand-receptor complex is assessed by liquid scintillation counting in a Packard LS Counter, with an efficiency of 65% for tritium. The data are analyzed for IC50 values by the LUNDON-2 program for competition (LUNDON SOFTWARE, Ohio).
# oxytocin receptors = target: T2, oxytocin receptors (Rattus norvegicus, UniProt P70536); test: Oxytocin Receptor Binding; parameters: species or system Sprague-Dawley rat; settings: for IC50: 1.0 nM [^3 H]OT, 60 min., 22° C.
# T2 construct: The uteri are dissected out, cleaned of fat and connective tissues; from tissue; host or cells: uterus of DES-treated female Sprague-Dawley rats
# T2 sequence (P70536 1-388): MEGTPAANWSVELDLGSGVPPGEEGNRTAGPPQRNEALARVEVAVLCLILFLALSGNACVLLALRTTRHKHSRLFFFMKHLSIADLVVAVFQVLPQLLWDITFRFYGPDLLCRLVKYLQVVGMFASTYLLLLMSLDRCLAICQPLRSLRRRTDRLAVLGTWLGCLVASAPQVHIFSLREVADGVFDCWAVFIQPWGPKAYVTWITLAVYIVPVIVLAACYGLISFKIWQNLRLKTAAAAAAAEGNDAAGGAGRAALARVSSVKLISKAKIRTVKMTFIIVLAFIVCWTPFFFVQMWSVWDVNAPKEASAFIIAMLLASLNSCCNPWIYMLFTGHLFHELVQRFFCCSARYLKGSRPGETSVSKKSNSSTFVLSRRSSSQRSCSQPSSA
# Experimental: Oxytocin Receptor Binding
# Female Sprague-Dawley rats weighing approximately 200-250 g are injected intramuscularly (i.m.) with 0.3 mg/kg of body weight of diethylstilbestrol (DES). The rats are sacrificed 18 hours later under pentobarbital anesthesia. The uteri are dissected out, cleaned of fat and connective tissues and rinsed in 50 ml of normal saline. The tissue pooled from six rats is homogenized in 50 ml of […] TriS.HCl, containing 0.5 mM dithiothreitol and 1.0 mM EDTA, adjusted to pH 7.4, using a polytron at setting 6 with three passes of 10 sec each. The homogenate is passed through two (2) layers of cheesecloth and the filtrate contrifuged at 1000×g for 10 min. The clear supernatant is removed and recentrifuged at 165,000×g for 30 min. The resulting pellet containing the oxytocin receptors is resuspended in 50.0 mM Tris.HCl containing 5.0 mM MgCl2 at pH 7.4, to give a protein concentration of 2.5 mg/ml of tissue suspension. This preparation is used in subsequent binding assays with [^3 H]Oxytocin.
# Binding of 3,5-[^3 H]Oxytocin ([^3 H]OT) to its receptors is done in microtiter plates using [^3 H]OT, at various concentrations, in an assay buffer of 50.0 mM Tris.HCl, pH 7.4 and containing 5.0 mM MgCl2, and a mixture of protease inhibitors: BSA, 0.1 mg; aprotinin, 1.0 mg; 1,10-phenanthroline, 2.0 mg; […], 10.0 mg; and PMSF, 0.3 mg per 100 ml of buffer solution. Non-specific binding is determined in the presence of 1.0 uM unlabeled OT. The binding reaction is terminated after 60 min., at 22° C., by rapid filtration through glass fiber filters using a Brandel® cell harvester (Biomedical Research and Development Laboratories, Inc., Gaithersburg, Md.). Competition experiments are conducted at equilibrium using 1.0 nM [^3 H]OT and varying the concentration of the displacing agents. The concentrations of agent displacing 50% of [^3 H]OT at its sites (IC50) are calculated by a computer assisted LUNDON-2 program (LUNDON SOFTWARE INC., Ohio, U.S.A.).
# Rat Hepatic V1 Receptors = target: T3, Rat Hepatic V1 Receptors (Rattus norvegicus, UniProt P30560); test: Binding Assay to Rat Hepatic V1 Receptors; settings: Rat Hepatic V1 Receptors (no asterisk)
# T3 construct: Rat liver plasma membranes expressing the vasopressin V1 receptor subtypes; from tissue; host or cells: rat liver plasma membranes
# T3 sequence (P30560 whole entry): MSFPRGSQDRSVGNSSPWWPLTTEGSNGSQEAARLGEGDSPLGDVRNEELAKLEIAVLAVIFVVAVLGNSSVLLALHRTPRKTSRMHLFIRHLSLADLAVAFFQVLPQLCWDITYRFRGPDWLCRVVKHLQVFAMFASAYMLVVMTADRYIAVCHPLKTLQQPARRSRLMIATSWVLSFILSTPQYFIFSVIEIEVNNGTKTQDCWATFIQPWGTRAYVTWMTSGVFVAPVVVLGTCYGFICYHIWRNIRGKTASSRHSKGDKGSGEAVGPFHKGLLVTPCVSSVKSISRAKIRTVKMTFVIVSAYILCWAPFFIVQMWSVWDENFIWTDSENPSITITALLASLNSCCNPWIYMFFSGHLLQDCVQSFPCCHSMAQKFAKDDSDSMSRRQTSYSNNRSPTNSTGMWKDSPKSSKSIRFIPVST
# Experimental: Binding Assay to Rat Hepatic V1 Receptors
# Rat liver plasma membranes expressing the vasopressin V1 receptor subtypes are isolated by sucrose density gradient according to the method described by Lesko et al., (1973). These membranes are quickly suspended in 50.0 mM Tris.HCl buffer, pH 7.4, containing 0.2% bovine serum albumin (BSA) and 0.1 mM phenylmethylsulfonylfluoride (PMSF) and kept frozen at -70° C. until used in subsequent binding experiments. For binding experiments, the following is added to the wells of a ninety-six well format microtiter plate: 100 μl of 100.0 mM Tris.HCl buffer containing 10.0 mM MgCl2, 0.2% heat inactivated BSA and a mixture of protease inhibitors: leupeptin, 1.0 mg %; aprotinin, 1.0 mg %, 1,10-phenanthroline,2.0 mg %; trypsin inhibitor, 10.0 mg % and 0.1 mM PMSF, 20.0 μl of [phenylalanyl-3,4,5-^3 H] vasopressin (S.A. 45.1 Ci/mmole) at 0.8 nM, and the reaction initiated by the addition of 80 μl of tissue membranes containing 20 μg of tissue protein. The plates are kept undisturbed on the bench top at room temperature for 120 min. to reach equilibrium. Non-specific samples are assayed in the presence of 0.1 μM of the unlabeled antagonist phenylalanylvasopressin, added in 20.0 μl volume to a final incubation volume of 200 μl. Upon completion of binding, the content of each well is filtered off, using a Brandel® cell Harvester (Gaithersburg, Md.). The radioactivity trapped on the filter disk by the ligand-receptor complex is assessed by liquid scintillation counting in a Packard LS Counter, with an efficiency of 65% for tritium. The data are analyzed for IC50 values by the LUNDON-2 program for competition (LUNDON SOFTWARE, Ohio).
# Vasopressin V2 = Vasopressin V2 Antagonist Activity in Conscious Hydrated Rats; assay type: in vivo, rat; settings: 10 mg/kg orally, N = 2, AVP 0.4 μg/kg intraperitoneally
# Experimental: Vasopressin V2 Antagonist Activity in Conscious Hyrdated Rats
# Conscious hydrated rats are treated with compounds under study from 0.1 to 100 mg/kg orally or vehicle. Two to four rats are used for each compound. One hour later, arginine vasopressin (AVP, antidiuretic hormone, ADH) dissolved in peanut oil is administered at 0.4 μg/kg intraperitoneally. Two rats in each test would not receive arginine vasopressin but only the vehicle (peanut oil) to serve as water-loading control. Twenty minutes later each rat is given 30 mL/kg of deionized water orally by gavage and is placed individually in a metabolic cage equipped with a funnel and a graduated glass cylinder to collect urine for four hours. Urine volume is measured and osmolality analyzed by use of a Fiske One-Ten osmometer (Fiske Assoc., Norwood, Mass. U.S.A.). Urinary sodium, potassium, and chloride are analyzed by use of ion-specific electrodes in a Beckman E3(Electrolyte 3) Analyzer.
# In the following results, […] and decreased osmolality relative to AVP-control indicates activity.
# T1 sequence (Q00788 whole entry): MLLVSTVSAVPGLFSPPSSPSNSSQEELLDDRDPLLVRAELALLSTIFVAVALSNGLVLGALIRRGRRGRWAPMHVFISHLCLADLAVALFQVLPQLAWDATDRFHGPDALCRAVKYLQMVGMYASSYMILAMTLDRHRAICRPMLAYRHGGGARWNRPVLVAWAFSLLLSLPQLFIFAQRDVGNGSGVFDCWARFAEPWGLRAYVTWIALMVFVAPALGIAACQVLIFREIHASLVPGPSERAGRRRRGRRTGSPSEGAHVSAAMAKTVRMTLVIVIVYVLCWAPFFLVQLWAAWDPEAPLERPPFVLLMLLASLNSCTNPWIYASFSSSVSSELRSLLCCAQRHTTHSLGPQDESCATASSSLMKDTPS
IC50 [1],IC50 (oxytocin receptors),inhibition at 10 µM (oxytocin receptors),IC50 (Rat Hepatic V1 Receptors),Compound,Urine Vol. (ml/4 hrs.) (Vasopressin V2),Osmolality (mOsm/kg) (Vasopressin V2; urine)
0.23 µM,1.7 µM,94%,4.7 µM,"Cn1cc2c(n1)-c1sccc1N(C(=O)c1ccc(NC(=O)C3CCCCC3)cc1)CC2 [Example 6, N-[4-[[4,5-Dihydro-2-methylpyrazolo[3,4-d]thieno[3,2-b]-azepin-6(2H)-yl]carbonyl]phenyl]cyclohexane carboxamide]",–,–
–,1.3 µM,91%,1.7 µM,"Cc1ccc(F)cc1C(=O)Nc1ccc(C(=O)N2CCc3cn[nH]c3-c3sccc32)cc1 [Example 2, N-[4-[(4,5-Dihydropyrazolo[3,4-d]thieno[3,2-b]azepin-6(1H)-yl)carbonyl]phenyl]-5-fluoro-2methylbenzamide]",17.8 ml/4 hrs.,429 mOsm/kg
